These results are taken from patent EP0597838B1, “VACCINE COMPOSITIONS” (NORTH AMERICAN VACCINE, INC., priority 1990, dated 1991).

One experiment deals with HIV-1 polypeptide. The experiment can be described thus: Antibody response to HIV-1 polypeptide in baboons with octadecyl tyrosine hydrochloride, radioimmunoassay. Format: in vivo. The method, then: 3) Experiments in baboons Two baboons were immunized with 300 µg of chemically synthesized polypeptide, corresponding to the amino acid sequence of residues 503-535 of HIV-1, coupled to Keyhole Limpet Hemocyanin. 500 µg of octadecyl tyrosine hydrochloride was complexed with the polypeptide, as described in Example 2. This mixture in a total volume of 1.0 ml was injected on day 1 and again on day 35. The animals were bled 3 days before the first immunization, and on days 14, 32 and 49. The same experiment was undertaken with another two baboons, but with polypeptide corresponding to the amino acid sequence 526-535 of HIV-1. The antibody concentration in the sera was indirectly measured by radioimmunoassay. Tiltration was undertaken by incubation of samples on plates coated with peptide-albumin conjugate, and reaction with iodine-125 labelled rabbit anti-monkey immunoglobulin.

Experiment [1] has as its system hepatitis B surface antigen. Briefly: Antibody response to hepatitis B surface antigen with octadecyl amino acid immunoadjuvants, radioimmunoassay of sera. It is filed as in vivo, BALB/c mice. Conditions: 50 ng HBsAg i.m. day 1, boost 35 ng day 21, 100 µg octadecyl amino acid. On the procedure: BALB/c mice were immunized with 50 ng of hepatitis B surface antigen in the presence of adjuvant for the non-control mice and in the absence of adjuvant for the control mice. The hepatitis B surface antigen was obtained from 3T3 cells transfected with the gene for the surface antigen. 100 µg of octadecyl amino acid was complexed with the polypeptide as described in Example 2. This mixture, in a total volume of 0.1 ml, was injected on day 1 using an intramuscular route, and the mice were bled on days 7, 14, 21, 28, 35, 42 and 61. The mice were boosted with 35 ng of the polypeptide on day 21.
The antibody concentration in the sera was determined by radioimmunoassay. The antibody concentration was estimated by comparison with a standard curve obtained using a monoclonal antibody.

On to “H-Val-Ala-Pro-Thr-Lys-Ala-Lys-Arg-Arg-Val-Val-Gln-Arg-Glu-Lys-Arg-Ala-Val-Gly-Ile-Gly-Ala-Leu-Phe-Leu-Gly-Phe-Leu-Gly-Ala-Ala-Gly-Ser- (VAPTKAKRRVVQREKRAVGIGALFLGFLGAAGS; printed: Val-Ala-Pro-Thr-Lys-Ala-Lys-Arg-Arg-Val-Val-Gln-Arg-Glu-Lys-Arg-Ala-Val-Gly-Ile-Gly-Ala-Leu-Phe-Leu-Gly-Phe-Leu-Gly-Ala-Ala-Gly-Ser-) [503-535]”, for which the “Antibody response to HIV-1 polypeptide” value was 2004 CPM in the experiment on HIV-1 polypeptide (ANIMAL 1, day 14, 300 µg polypeptide-KLH + 500 µg octadecyl tyrosine hydrochloride on day 1 and 35, background subtracted); 2185 CPM with HIV-1 polypeptide (ANIMAL 1, day 32, 300 µg polypeptide-KLH + 500 µg octadecyl tyrosine hydrochloride on day 1 and 35, background subtracted); 5948 CPM with HIV-1 polypeptide (ANIMAL 1, day 49, 300 µg polypeptide-KLH + 500 µg octadecyl tyrosine hydrochloride on day 1 and 35, background subtracted); 1020 CPM in the experiment with HIV-1 polypeptide (ANIMAL 1, day -3 (bled before the first immunization), after subtraction of background on bovine serum albumin coated plates); 2160 CPM with HIV-1 polypeptide (ANIMAL 2, day 14, 300 µg polypeptide-KLH + 500 µg octadecyl tyrosine hydrochloride on day 1 and 35, background subtracted); 2121 CPM in the experiment on HIV-1 polypeptide (ANIMAL 2, day 32, 300 µg polypeptide-KLH + 500 µg octadecyl tyrosine hydrochloride on day 1 and 35, background subtracted). For the same compound, the “Antibody response to HIV-1 polypeptide” value in the experiment with HIV-1 polypeptide (ANIMAL 2, day 49, 300 µg polypeptide-KLH + 500 µg octadecyl tyrosine hydrochloride on day 1 and 35, background subtracted) amounted to 4470 CPM; with HIV-1 polypeptide (ANIMAL 2, day -3 (bled before the first immunization), after subtraction of background on bovine serum albumin coated plates), 1530 CPM.
As for `CCCCCCCCCCCCCCCCCCOC(=O)CN`, the Anti-HBsAg antibody concentration in experiment [1] (day 7) was 47 ng/mL; in experiment [1] (day 14), 38 ng/mL; in experiment [1] (day 21), 51 ng/mL; in experiment [1] (day 28), 147 ng/mL; in experiment [1] (day 35) it was 748 ng/mL; in experiment [1] (day 61) it was 301 ng/mL.
For Octadecyl Forphenicine, the Anti-HBsAg antibody concentration in experiment [1] (day 7) was 100 ng/mL; in experiment [1] (day 14) it was 112 ng/mL; in experiment [1] (day 21), 116 ng/mL; in experiment [1] (day 28) it was 908 ng/mL; in experiment [1] (day 35), 592 ng/mL; in experiment [1] (day 61) it was 355 ng/mL.
For the compound `CCCCCCCCCCCCCCCCCCOC(=O)C(N)CCCCN` (centres unmarked) [Octadecyl Lysine], the Anti-HBsAg antibody concentration in experiment [1] (day 7) was 33 ng/mL; in experiment [1] (day 14) it was 55 ng/mL; in experiment [1] (day 21), 39 ng/mL; in experiment [1] (day 28) it was 51 ng/mL; in experiment [1] (day 35), 67 ng/mL; in experiment [1] (day 61), 53 ng/mL.
In the case of `CCCCCCCCCCCCCCCCCCOC(=O)C(N)CC(C)C` (centres unmarked), the Anti-HBsAg antibody concentration in experiment [1] (day 7) amounted to 48 ng/mL; in experiment [1] (day 14), 42 ng/mL; in experiment [1] (day 21), 37 ng/mL; in experiment [1] (day 28) it was 160 ng/mL; in experiment [1] (day 35) it was 590 ng/mL; in experiment [1] (day 61), 496 ng/mL.
On to Octadecyl Forphenicinol, for which the Anti-HBsAg antibody concentration in experiment [1] (day 7) was found to be 31 ng/mL; in experiment [1] (day 14), 40 ng/mL; in experiment [1] (day 21), 26 ng/mL; in experiment [1] (day 28), 65 ng/mL; in experiment [1] (day 35), 306 ng/mL; in experiment [1] (day 61), 98 ng/mL.
As for `CCCCCCCCCCCCCCCCCCOC(=O)C1CCCN1` (centres unmarked), the Anti-HBsAg antibody concentration in experiment [1] (day 7) is 49 ng/mL; in experiment [1] (day 14), 35 ng/mL; in experiment [1] (day 21) it was 41 ng/mL; in experiment [1] (day 28) it was 72 ng/mL; in experiment [1] (day 35), 409 ng/mL; in experiment [1] (day 61), 168 ng/mL.
Consider `CCCCCCCCCCCCCCCCCCOC(=O)CCN`, for which the Anti-HBsAg antibody concentration in experiment [1] (day 7) stood at 31 ng/mL; in experiment [1] (day 14), 45 ng/mL; in experiment [1] (day 21), 44 ng/mL; in experiment [1] (day 28), 120 ng/mL; in experiment [1] (day 35) it was 337 ng/mL; in experiment [1] (day 61), 373 ng/mL.
